pEC50: −log10 of the molar value. Where two headings read alike, the source gives them in different places.

Consider 42 compounds from patent US9840481B2, “Allosteric modulators of nicotinic acetylcholine receptors” (MERCK SHARP & DOHME CORP., priority 2016, dated 2017).

The target of this assay is T1, human α7 nAChR stably expressed in a HEK cell line (with human RIC-3) (Homo sapiens, UniProt P36544).
T1 construct: PrecisION hnAChR α7/RIC-3
The assay can be described thus: Automated patch-clamp electrophysiology functional assay (Assay A), IonFlux HT, whole-cell population patch. In kind it is cell-based. Here is the method:
The α7 nAChR positive allosteric modulator (PAM) activity of the present compounds may be tested using assays known in the art. The α7 nAChR PAMs described herein have activities in an automated patch-clamp electrophysiology functional assay as described in the examples. The assay was performed using the IonFlux HT in a whole-cell, population patch configuration. See Golden et al. Assay Drug Dev. Technol. (2011) 9:608-619. The compounds were assessed for their ability to modulate the function of the human α7 nAChR stably expressed in a HEK cell line both in the presence, and in the absence of the natural α7 agonist acetylcholine. By performing a series of such measurements at different concentrations, the effective concentration of the α7 nAChR PAMs (EC50) was determined. See Spencer et al. Assay Drug Dev. Technol. (2012) 10:313-324.
Direct activation of α7 (agonism), and potentiation of 5 acetylcholine-evoked α7 currents was determined as follows:
Automated Patch-Clamp Electrophysiology Functional Assay (Assay A)
Automated patch-clamp electrophysiology was performed using the IonFlux HT (Fluxion Biosciences Inc., San Francisco, Calif.) in the whole-cell, population patch configuration. Test compounds were assessed for their ability to modulate the function of the α7 nicotinic acetylcholine receptor both in the presence, and in the absence of the natural α7 agonist acetylcholine. A HEK cell line stably expressing both human RIC-3 and human α7 (PrecisION hnAChR α7/RIC-3, Eurofins Pharma, St. Charles, Mo.) was cultured in 175 cm^2 triple-layer tissue culture flasks to no more than 90% confluency in DMEM/F-12 growth media supplemented with 10% heat-inactivated fetal bovine serum, 1% non-essential amino acids, 0.625 μg/mL Puromycin, and 400 μg/mL Geneticin. Immediately prior to assay, cells were detached by first aspirating growth media, rinsing with Dulbecco's phosphate buffered saline, and then adding 10 mL of Accutase (Innovative Cell Technologies, San Diego, Calif.) to the flask and then incubating at 37° C. for 5 minutes. Detached cells were then recovered by the addition of 40 mL of CHO-serum-free media supplemented with 25 mM HEPES, and rocked gently in a 50 mL conical tube for 20 minutes prior to patch-clamp assay. After recovery, cells were pelleted by centrifugation at 1,000 RPM for 1 minute in a compact bench top centrifuge; recovery media was aspirated and cells were resuspended in external recording solution (150 mM NaCl, 5 mM KCl, 2 mM CaCl2, 1 mM MgCl2, 10 mM HEPES, 12 mM dextrose) to a density of 5.0×10^6 cells/mL. The cell suspension was added to the cell inlet wells on an IonFlux HT population patch plate which had previously been rinsed and primed with deionized H2O. Test compounds were serially diluted in DMSO and then resuspended to the final test concentration in external recording solution, with, or without […] acetylcholine added to the external recording solution; test compounds were then transferred to the IonFlux HT population patch plate. Internal recording solution (110 mM TrisPO4, 28 mM TrisBase, 0.1 mM CaCl2, 2 mM MgCl2, 11 mM EGTA, 4 mM MgATP) was added to the internal recording solution inlet wells on the IonFlux HT patch plate previously loaded with cells and test compounds, and the plate loaded into the IonFlux HT instrument. A protocol was executed on the IonFlux HT to trap the cells, break into the cells, and establish the whole-cell recording configuration; cells were voltage-clamped at a holding potential of −60 mV for the duration of the experiment, all experiments were conducted at room temperature, and the IonFlux HT injection pressure was 8 psi for solution applications. Upon establishing the whole-cell configuration, external recording solution was perfused into the recording chambers for 120 seconds and then 40 μM acetylcholine was applied for 1 second and immediately washed off with external recording solution for 60 seconds. […]

Where [1] appears, read: automated patch-clamp electrophysiology functional assay (Assay A), potency class by EC50, read-out: α7 nAChR Potency.
Setting [2] is: electrophysiology EC50, HEK cells expressing human α7/RIC-3, 40 μM acetylcholine, holding potential −60 mV, room temperature, read-out: α7 nAChR EC50.

T1 sequence (P36544 23-502): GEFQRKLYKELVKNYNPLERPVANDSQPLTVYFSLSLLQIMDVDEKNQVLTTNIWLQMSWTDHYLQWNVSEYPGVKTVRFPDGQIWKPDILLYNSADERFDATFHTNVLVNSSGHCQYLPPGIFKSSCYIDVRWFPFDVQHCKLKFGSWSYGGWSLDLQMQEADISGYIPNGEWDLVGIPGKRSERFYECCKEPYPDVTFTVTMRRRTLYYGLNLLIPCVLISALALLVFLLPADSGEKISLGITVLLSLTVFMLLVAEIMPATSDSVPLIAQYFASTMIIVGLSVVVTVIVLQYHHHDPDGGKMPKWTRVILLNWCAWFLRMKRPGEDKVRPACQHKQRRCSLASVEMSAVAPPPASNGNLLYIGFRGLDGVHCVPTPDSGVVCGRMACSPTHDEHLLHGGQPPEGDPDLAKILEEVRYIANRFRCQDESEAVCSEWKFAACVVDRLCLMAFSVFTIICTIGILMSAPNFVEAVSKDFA

On to `CC1(C)[C@@H](c2ccc(S(N)(=O)=O)cc2)[C@@H]1c1cn(-c2cccc(F)c2)nn1` [Example L6], for which the pEC50 under setting [1] was 5.30 to 6.30 and the pEC50 under setting [2] was 6.02. As for `NS(=O)(=O)c1ccc([C@@H]2[C@@H](c3nc(-c4ccccc4)no3)C2(F)F)cc1` [Example A9], under setting [1], the pEC50 is 5.30 to 6.30. `COc1ccc(Cl)cc1-c1noc([C@H]2[C@H](c3ccc(S(N)(=O)=O)cc3)C2(C)C)n1` [Example C1]: under setting [1], the pEC50 was 4.30 to 5.30. As for `CC1(C)[C@H](c2ccc(S(N)(=O)=O)cc2)[C@H]1c1cn(-c2ccccc2)nn1` [Example 12, 4-[(1R,3R)-2,2-Dimethyl-3-(1-phenyl-1H-1,2,3-triazol-4-yl)cyclopropyl]benzenesulfonamide], the pEC50 reads like this: under setting [1], 5.30 to 6.30; under setting [2], 6.04.

On to `CCc1coc([C@@H]2C[C@H]2c2ccc(S(N)(=O)=O)cc2)n1` [Example K6], for which, under setting [1], the pEC50 is 5.30 to 6.30. Same read-out and setting: under `CC(C)c1nnc([C@H]2[C@H](c3ccc(S(N)(=O)=O)cc3)C2(C)C)o1` [Example G9] stands 5.30 to 6.30. `CC1(C)[C@@H](c2ccc(S(N)(=O)=O)cc2)[C@@H]1c1nc(-c2cccnc2C(F)(F)F)no1` [Example D30]: the pEC50 is, setting by setting: under setting [1], 5.30 to 6.30; under setting [2], 5.92. On to `CC1(C)[C@@H](c2ccc(S(N)(=O)=O)cc2)[C@@H]1c1nnc(-c2c(F)cccc2F)o1` [Example G5], for which the pEC50 is, setting by setting: under setting [1], 5.30 to 6.30; under setting [2], 5.89. On to `CC1(C)[C@@H](c2ccc(S(N)(=O)=O)cc2)[C@@H]1c1nnc(C2CCCCC2)s1` [Example G13], for which the pEC50 runs as follows: under setting [1], 5.30 to 6.30; under setting [2], 5.66. Taken in the same sequence, the figures for `NS(=O)(=O)c1ccc([C@@H]2C[C@H]2c2nsc(-c3cccc(F)c3)n2)cc1` [Example L10] were at least 7.00 and 7.06. Turning to `NS(=O)(=O)c1ccc([C@@H]2C[C@H]2c2nc(-c3cnccc3C(F)(F)F)no2)cc1` [Example D25], under setting [1], the pEC50 is 5.30 to 6.30. As for `CC1(C)[C@H](c2ccc(S(N)(=O)=O)cc2)[C@H]1c1nc(C2CCCO2)no1` (stereo partly shown) [Example B12], the pEC50 under setting [1] is 4.30 to 5.30. As for `NS(=O)(=O)c1ccc([C@@H]2[C@@H](c3ncc(C4CCCC4)o3)C2(F)F)cc1` [Example J11], the pEC50 reads like this: under setting [1], 5.30 to 6.30; under setting [2], 6.14. On to `CC1(C)[C@H](c2ccc(S(N)(=O)=O)cc2)[C@H]1c1nc(-c2cncc(C(F)(F)F)c2)no1` [Example B7], for which the pEC50 under setting [1] is 5.30 to 6.30 and the pEC50 under setting [2] was 5.55. On to `CC(C)(C)c1cnc([C@@H]2C[C@H]2c2ccc(S(N)(=O)=O)cc2)o1` [Example K4], for which the pEC50 under setting [1] is 5.30 to 6.30. Regarding `CC1(C)[C@H](c2ccc(S(N)(=O)=O)cc2)[C@H]1c1nc(C2CC3(CCC3)C2)no1` (stereo partly shown) [Example B15], the pEC50 under setting [1] is 5.30 to 6.30. Take `CC1(C)[C@@H](c2ccc(S(N)(=O)=O)cc2)[C@@H]1c1noc(Cn2c(=O)oc3ccc(Cl)cc32)n1` [Example I5]: the pEC50 under setting [1] was 5.30 to 6.30. For the compound `CC1(C)[C@H](c2ccc(S(N)(=O)=O)cc2)[C@H]1c1nc(-c2ccc(F)cc2F)no1` [Example A7], the pEC50 was 5.30 to 6.30 under setting [1] and 5.89 under setting [2].

As for `C#Cc1ccc(-c2nc([C@H]3[C@H](c4ccc(S(N)(=O)=O)cc4)C3(C)C)no2)cc1` [Example H11], the pEC50 by setting is: under setting [1], 5.30 to 6.30; under setting [2], 5.72. Taken in the same sequence, the figures for `Cc1ncccc1-c1noc([C@@H]2C[C@H]2c2ccc(S(N)(=O)=O)cc2)n1` [Example D16] were 5.30 to 6.30 and 5.89.

`CC(C)(C)c1noc([C@H]2[C@H](c3ccc(S(N)(=O)=O)cc3)C2(C)C)n1` [Example D10]: the pEC50 is 6.30 to 7.00 under setting [1] and 6.39 under setting [2]. With `CC1(C)[C@@H](c2ccc(S(N)(=O)=O)cc2)[C@@H]1c1noc(-c2cccnc2C(F)(F)F)n1` [Example I21], the pEC50 under setting [1] is 5.30 to 6.30.

For `CC1(C)[C@@H](c2ccc(S(N)(=O)=O)cc2)[C@@H]1c1noc(-c2cc(F)cc(F)c2F)n1` [Example H10], the pEC50 by setting is: under setting [1], 6.30 to 7.00; under setting [2], 6.62. In the same order, the values of `Cc1nc([C@@H]2C[C@H]2c2ccc(S(N)(=O)=O)cc2)sc1-c1ccccc1` [Example 16, 4-[(1R,2R)-2-(4-Methyl-5-phenyl-1,3-thiazol-2-yl)cyclopropyl]benzenesulfonamide] are at least 7.00 and 7.01. Consider `NS(=O)(=O)c1ccc([C@@H]2C[C@H]2c2nc(-c3ccccc3F)no2)cc1` [Example C20], for which the pEC50 under setting [1] was 6.30 to 7.00. Regarding `CCOc1nc([C@@H]2[C@@H](c3ccc(S(N)(=O)=O)cc3)C2(C)C)ns1` [Example L9], the pEC50 under setting [1] is 5.30 to 6.30. Regarding `CC1(C)[C@H](c2ccc(S(N)(=O)=O)cc2)[C@H]1c1nc(C2CCc3cc(F)ccc32)no1` (stereo partly shown) [Example B14], the pEC50 by setting is: under setting [1], 5.30 to 6.30; under setting [2], 5.92.

Turning to `CC1(C)[C@H](c2ccc(S(N)(=O)=O)cc2)[C@H]1c1noc(C2(C(F)(F)F)CC2)n1` [Example L19], under setting [1], the pEC50 is 5.30 to 6.30.

For `COc1ccc(Cl)cc1-c1noc(C2C(c3ccc(S(N)(=O)=O)cc3)C2(F)F)n1` (stereo not shown) [Example E2], the pEC50 under setting [1] was 5.30 to 6.30. Same read-out and setting: under `NS(=O)(=O)c1ccc([C@@H]2C[C@H]2c2nc(-c3ccccc3)c[nH]2)cc1` [Example K12] stands 4.30 to 5.30.

Regarding `CC1(C)[C@H](c2ccc(S(N)(=O)=O)cc2)[C@H]1c1nc(C2CCOC2)no1` (stereo partly shown) [Example B11], the pEC50 by setting is: under setting [1], 4.30 to 5.30; under setting [2], 5.24. On to `NS(=O)(=O)c1ccc([C@H]2C[C@@H]2c2cnc(-c3ccccc3)o2)cc1` [Example L2], for which the pEC50 under setting [1] is 5.30 to 6.30 and the pEC50 under setting [2] was 5.32. Regarding `CC(C)c1noc([C@@H]2[C@@H](c3ccc(S(N)(=O)=O)cc3)C2(C)C)n1` [Example B1], the pEC50 runs as follows: under setting [1], 5.30 to 6.30; under setting [2], 5.82. With `CC1(C)[C@H](c2ccc(S(N)(=O)=O)cc2)[C@H]1c1nc(C2CC(F)(F)C2)no1` [Example B8], under setting [1], the pEC50 was 5.30 to 6.30. Regarding `CC1(C)[C@@H](c2ccc(S(N)(=O)=O)cc2)[C@@H]1c1ncc(-c2ccccc2)s1` [Example 17, 4-[(1S,3S)-2,2-Dimethyl-3-(5-phenyl-1,3-thiazol-2-yl)cyclopropyl]benzenesulfonamide], the pEC50 is 5.30 to 6.30 under setting [1] and 5.70 under setting [2]. With `CCc1coc([C@H]2[C@H](c3ccc(S(N)(=O)=O)cc3)C2(C)C)n1` [Example K8], the pEC50 under setting [1] was 5.30 to 6.30 and the pEC50 under setting [2] was 6.27. As to `CC(C)c1noc([C@H]2[C@H](c3ccc(S(N)(=O)=O)cc3)C2(F)F)n1` [Example D1], the pEC50 reads like this: under setting [1], 6.30 to 7.00; under setting [2], 6.92. With `CC1(C)[C@@H](c2ccc(S(N)(=O)=O)cc2)[C@@H]1c1ncc(C2CCCC2)s1` [Example K16], the pEC50 under setting [1] was 5.30 to 6.30. Consider `NS(=O)(=O)c1ccc([C@H]2[C@H](c3nc(C4CCCCC4)cs3)C2(F)F)cc1` [Example K19], for which the pEC50 was 6.30 to 7.00 under setting [1] and 6.80 under setting [2]. In the case of `CC1(C)[C@@H](c2ccc(S(N)(=O)=O)cc2)[C@@H]1c1noc(-c2cc(N3CCOC3=O)ccc2F)n1` [Example H7], the pEC50 under setting [1] is 5.30 to 6.30 and the pEC50 under setting [2] is 5.62. As to `CC1(C)[C@H](c2ccc(S(N)(=O)=O)cc2)[C@H]1c1nnc(-c2c(F)cccc2C(F)(F)F)o1` [Example F3], the pEC50 under setting [1] was 5.30 to 6.30 and the pEC50 under setting [2] was 5.33.

Turning to `NS(=O)(=O)c1ccc([C@@H]2C[C@H]2c2nc(-c3ccc(F)cc3C(F)(F)F)no2)cc1` [Example C7], the pEC50 was 5.30 to 6.30 under setting [1] and 6.02 under setting [2].
